# Laboratory results: US11884647B2, “Compounds and methods for targeting pathogenic blood vessels” (THE REGENTS OF THE UNIVERSITY OF CALIFORNIA, priority 2019, dated 2024)
# System: tumor endothelial cells (LL/2 lung cancer tumor)
# Test: Lung LL2 ex vivo model of tumor angiogenesis
# Assay type: cell-based, mouse
# Conditions: Lung LL2 ex vivo; Conc. 20 μm; 48 hrs
# Method in brief: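 Read-out is live/dead fluorescence imaging (fluorescein diacetate green, propidium iodide red, 10 min at 37° C) at 2×, taken e.g. 48 h after drug addition. Fragments of mouse LL2 tumor are cultured in Matrigel with endothelial growth medium, usually 4 days, until new endothelial cells grow out, then treated.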
row,SMILES,48 hrs (morphology observations after 48 hours)
1,"CCCCCCCCCCCCCCOc1ccc(S(=O)(=O)c2cnc3ccc([S](C)[O])cc3c2N2CCC(N3CCC(N4CCCC(O)C4)CC3)CC2)cc1 (stereo not drawn) [compound 348, 1″-(6-(methyl(λ^1-oxidanyl)-λ^3-sulfanyl)-3-((4-(tetradecyloxy)phenyl)sulfonyl)quinolin-4-yl)-[1,4′:1′,4″-terpiperidin]-3-ol]",* (50% or less of cells vesicularize in cell shape)

# Same assay, conditions: Lung LL2 ex vivo; Conc. 20 μm; drug treatment two days
row,SMILES,Cell death
1,"COc1ccc(S(=O)(=O)c2cnc3ccc(CC#N)cc3c2N2CCC(N3CCCCC3)CC2)cc1 [compound 115, 2-(4-([1,4′-bipiperidin]-1′-yl)-3-((4-methoxyphenyl)sulfonyl)quinolin-6-yl)acetonitrile]",10%
2,"CCCCCCCCCCCCCCOc1ccc(S(=O)(=O)c2cnc3ccc([S](C)[O])cc3c2N2CCC(N3CCC(N4CCCC(O)C4)CC3)CC2)cc1 (stereo not drawn) [compound 348, 1″-(6-(methyl(λ^1-oxidanyl)-λ^3-sulfanyl)-3-((4-(tetradecyloxy)phenyl)sulfonyl)quinolin-4-yl)-[1,4′:1′,4″-terpiperidin]-3-ol]",20%

# Same assay, conditions: Lung LL2 ex vivo; Conc. 40 μm; drug treatment two days
row,SMILES,Cell death
1,"CCCCOc1ccc(S(=O)(=O)c2cnc3ccc(SC)cc3c2N2CCCN(C3CCSCC3)CC2)cc1 [compound 358, 3-((4-butoxyphenyl)sulfonyl)-6-(methylthio)-4-(4-(tetrahydro-2H-thiopyran-4-yl)-1,4-diazepan-1-yl)quinoline]",0%
2,"CCCCOc1ccc(S(=O)(=O)c2cnc3ccc(SC)cc3c2N2CCC(=O)N(C)CC2)cc1 [compound 357, 1-(3-((4-butoxyphenyl)sulfonyl)-6-(methylthio)quinolin-4-yl)-4-methyl-1,4-diazepan-5-one]",0%
3,"CNC(=O)c1ccc2ncc(S(=O)(=O)c3ccc(OC)cc3)c(NC)c2c1 [compound 360, 3-((4-methoxyphenyl)sulfonyl)-N-methyl-4-(methylamino)quinoline-6-carboxamide]",20%
4,"CCCCOc1ccc(S(=O)(=O)c2cnc3ccc(SC)cc3c2N2CCCN(CCO)CC2)cc1 [compound 351, 2-(4-(3-((4-butoxyphenyl)sulfonyl)-6-(methylthio)quinolin-4-yl)-1,4-diazepan-1-yl)ethan-1-ol]",100%
5,"COc1ccc(S(=O)(=O)c2cnc3cc(OC)c(OC)cc3c2N2CCCN(c3nc4ccc(Cl)cc4s3)CC2)cc1 [compound 327, 6-chloro-2-(4-(6,7-dimethoxy-3-((4-methoxyphenyl)sulfonyl)quinolin-4-yl)-1,4-diazepan-1-yl)benzo[d]thiazole]",20%

# Same assay, conditions: Mus musculus, Endothelial cell, 48 h, read-out: Cell death
SMILES,cytotoxicity at 40 µM,cytotoxicity at 20 µM,cytotoxicity at 10 µM
"CCOC(=O)c1ccc2ncc(S(=O)(=O)c3ccc(OC)cc3)c(NN3CCN(C)CC3)c2c1 [compound 225, ethyl 3-((4-methoxyphenyl)sulfonyl)-4-((4-methylpiperazin-1-yl)amino)quinoline-6-carboxylate]",40%,,
"CCCCCCCOc1ccc(S(=O)(=O)c2cnc3ccc(SC)cc3c2N2CCCN(CCN3CCCCC3)CC2)cc1 [compound 248, 3-((4-(heptyloxy)phenyl)sulfonyl)-6-(methylthio)-4-(4-(2-(piperidin-1-yl)ethyl)-1,4-diazepan-1-yl)quinoline]",,60%,
"CCCCCCCCCCCCOc1ccc(S(=O)(=O)c2cnc3ccc([S+](C)[O-])cc3c2N2CCC(N3CCC(N4CCN(C)CC4)CC3)CC2)cc1F (stereo not drawn) [compound 370, 3-((4-(dodecyloxy)-3-fluorophenyl)sulfonyl)-4-(4-(4-methylpiperazin-1-yl)-[1,4′-bipiperidin]-1′-yl)-6-(methylsulfinyl)quinoline]",,20%,
"CCCCOc1ccc(S(=O)(=O)c2cnc3ccc([S+](C)[O-])cc3c2N2CCC(N3CCOCC3)CC2)cc1 (stereo not drawn) [compound 235, 4-(1-(3-((4-butoxyphenyl)sulfonyl)-6-(methylsulfinyl)quinolin-4-yl)piperidin-4-yl)morpholine]",10%,,
"COc1ccc(S(=O)(=O)c2cnc3cc(OC)c(OC)cc3c2N2CCCN(CCO)CC2)cc1 [compound 323, 2-(4-(6,7-dimethoxy-3-((4-methoxyphenyl)sulfonyl)quinolin-4-yl)-1,4-diazepan-1-yl)ethan-1-ol]",30%,,
"CCCCCCCCCCOc1ccc(S(=O)(=O)c2cnc3ccc([S+](C)[O-])cc3c2N2CCC(N3CCC(N4CCCC(O)C4)CC3)CC2)cc1 (stereo not drawn) [compound 288, 1″-(3-((4-(decyloxy)phenyl)sulfonyl)-6-(methylsulfinyl)quinolin-4-yl)-[1,4′:1′,4″- terpiperidin]-3-ol]",,,50%
"CCOC(=O)c1ccc2ncc(S(=O)(=O)c3ccc(OC)cc3)c(N3CCCN(CCN4CCCCC4)CC3)c2c1 [compound 179, ethyl 3-((4-methoxyphenyl)sulfonyl)-4-(4-(2-(piperidin-1-yl)ethyl)-1,4-diazepan-1-yl)quinoline-6-carboxylate]",,,60%
"COc1ccc(S(=O)(=O)c2cnc3cc(OC)c(OC)cc3c2N2CCCN(C3COC3)CC2)cc1 [compound 326, 6,7-dimethoxy-3-((4-methoxyphenyl)sulfonyl)-4-(4-(oxetan-3-yl)-1,4-diazepan-1-yl)quinoline]",30%,,
"CCCCCCCCCCCCOc1ccc(S(=O)(=O)c2cnc3ccc([S+](C)[O-])cc3c2N2CCC(N3CCC(N4CCN(CCO)CC4)CC3)CC2)cc1F (stereo not drawn) [compound 368, 2-(4-(1′-(3-((4-(dodecyloxy)-3-fluorophenyl)sulfonyl)-6-(methylsulfinyl)quinolin-4-yl)-[1,4′-bipiperidin]-4-yl)piperazin-1-yl)ethanol]",,20%,
"CCCCCCCCCCOc1ccc(S(=O)(=O)c2cnc3ccc([S+](C)[O-])cc3c2N2CCC(N3CCN(CCO)CC3)CC2)cc1 (stereo not drawn) [compound 268, 2-(4-(1-(3-((4-(decyloxy)phenyl)sulfonyl)-6-(methylsulfinyl)quinolin-4-yl)piperidin-4-yl)piperazin-1-yl)ethan-1-ol]",,50%,
"CCN(CC)CCCN1CCN(c2c(S(=O)(=O)c3ccc(OC)cc3)cnc3cc(OC)c(OC)cc23)CC1 [compound 302, 3-(4-(6,7-dimethoxy-3-((4-methoxyphenyl)sulfonyl)quinolin-4-yl)piperazin-1-yl)-N,N-diethylpropan-1-amine]",70%,,
"CCc1ccc(S(=O)(=O)c2cnc3ccc(OC(F)(F)F)cc3c2NN2CCCCC2)cc1 [compound 105, 3-((4-ethylphenyl)sulfonyl)-N-(piperidin-1-yl)-6-(trifluoromethoxy)quinolin-4-amine]",,0%,
"CCCCOc1ccc(S(=O)(=O)c2cnc3ccc(C(=O)OCC)cc3c2N2CCC(N3CCN(C)CC3)CC2)cc1 [compound 172, ethyl 3-((4-butoxyphenyl)sulfonyl)-4-(4-(4-methylpiperazin-1-yl)piperidin-1-yl)quinoline-6-carboxylate]",100%,,
"CCc1ccc(S(=O)(=O)c2cnc3ccc(OC(F)(F)F)cc3c2NCCCCO)cc1 [compound 111, 4-((3-((4-ethylphenyl)sulfonyl)-6-(trifluoromethoxy)quinolin-4-yl)amino)butan-1-ol]",,30%,
"CCCCCCCCCCCCOc1ccc(S(=O)(=O)c2cnc3ccc([S+](C)[O-])cc3c2N2CCC(N3CCC(N4CCC(O)CC4)CC3)CC2)cc1F (stereo not drawn) [compound 372, 1″-(3-((4-(dodecyloxy)-3-fluorophenyl)sulfonyl)-6-(methylsulfinyl)quinolin-4-yl)-[1,4′:1′,4″- terpiperidin]-4-ol]",,20%,
"CCc1ccc(S(=O)(=O)c2cnc3ccc(OC(F)(F)F)cc3c2NCCCCCO)cc1 [compound 104, 5-((3-((4-ethylphenyl)sulfonyl)-6-(trifluoromethoxy)quinolin-4-yl)amino)pentan-1-ol]",,20%,
"CCCCOc1ccc(S(=O)(=O)c2cnc3ccc([S+](C)[O-])cc3c2N2CCC(N3CCCCC3)CC2)cc1 (stereo not drawn) [compound 167, 4-([1,4′-bipiperidin]-1′-yl)-3-((4-butoxyphenyl)sulfonyl)-6-(methylsulfinyl)quinoline]",,40%,
"CCCCOc1ccc(S(=O)(=O)c2cnc3ccc(OC(F)(F)F)cc3c2N2CCSCC2)cc1 [compound 187, 4-(3-((4-butoxyphenyl)sulfonyl)-6-(trifluoromethoxy)quinolin-4-yl)thiomorpholine]",30%,,
"CCCCCCCOc1ccc(S(=O)(=O)c2cnc3ccc(SC)cc3c2N2CCN(CCN3CCCCC3)CC2)cc1 [compound 281, 3-((4-(heptyloxy)phenyl)sulfonyl)-6-(methylthio)-4-(4-(2-(piperidin-1-yl)ethyl)piperazin-1-yl)quinoline]",,50%,
"CNC(=O)c1ccc2ncc(S(=O)(=O)c3ccc(OC)cc3)c(N3CCC(N4CCCC4CO)CC3)c2c1 (stereo not drawn) [compound 336, 4-(4-(2-(hydroxymethyl)pyrrolidin-1-yl)piperidin-1-yl)-3-((4-methoxyphenyl)sulfonyl)-N-methylquinoline-6-carboxamide]",0%,,
"COc1ccc(S(=O)(=O)c2cnc3cc(OC)c(OC)cc3c2N2CCC3C(COCCN3CC(C)C)C2)cc1 (stereo not drawn) [compound 324, 7-(6,7-dimethoxy-3-((4-methoxyphenyl)sulfonyl)quinolin-4-yl)-1-isobutyldecahydropyrido[4,3-e][1,4]oxazepine]",60%,,
"COc1ccc(C2CCN(c3c(S(=O)(=O)c4ccc(OC)cc4)cnc4cc(OC)c(OC)cc34)CC2)cc1 [compound 311, 6,7-dimethoxy-4-(4-(4-methoxyphenyl)piperidin-1-yl)-3-((4-methoxyphenyl)sulfonyl)quinoline]",30%,,
"COc1ccc(S(=O)(=O)c2cnc3ccc(C(=O)N(C)C)cc3c2N2CCC(N3CCCCC3)CC2)cc1 [compound 331, 4-([1,4′-bipiperidin]-1′-yl)-3-((4-methoxyphenyl)sulfonyl)-N,N-dimethylquinoline-6-carboxamide]",10%,,
"COc1ccc(S(=O)(=O)c2cnc3ccc(SC)cc3c2NN2CCN(C)CC2)cc1 [compound 226, 3-((4-methoxyphenyl)sulfonyl)-N-(4-methylpiperazin-1-yl)-6-(methylthio)quinolin-4-amine]",10%,,
"COc1ccc(S(=O)(=O)c2cnc3cc(OC)c(OC)cc3c2N2CCCN(C3CCSCC3)CC2)cc1 [compound 329, 6,7-dimethoxy-3-((4-methoxyphenyl)sulfonyl)-4-(4-(tetrahydro-2H-thiopyran-4-yl)-1,4-diazepan-1-yl)quinoline]",40%,,
